US20100093062A1, “TR[…] FOR PERKINSUS SPECIES” (priority 2007, published 2010)
“Also recorded” adds a separate entry of the source.

System: Perkinsus proliferation
Assay: Effect of selectable marker candidates on Perkinsus proliferation (OD600 over time, visual inspection of treated cells)
Type: cell-based, Perkinsus marinus
Settings: for position of OD600 curve in FIG. 2: at 15 days, curves ranked top to bottom; for effect on parasite growth / Perkinsus proliferation: FIG. 2, optical density (OD600) as a function of time in days
Procedure: FIG. 2 is a graph of Optical density (OD600) as a function of time, in days, for various selectable marker candidates for their effect on Perkinsus proliferation. […]
G418 (800 μg/ml) was highly toxic, with visible effects six days after treatment. […] Visual inspection of the treated cells indicated changes in the morphology and cell death. These changes were more evident for G418 and pyrimethamine than with the CAP treatment.

Compound	position of OD600 curve in FIG. 2 (100 μg/ml)	position of OD600 curve in FIG. 2 (400 μg/ml)	time to visible effects after treatment (800 μg/ml)	toxicity to the parasite (800 μg/ml)	position of OD600 curve in FIG. 2 (800 μg/ml)	time to cells dying after treatment (100 and 400 μg/ml) [days]	effect on parasite growth / Perkinsus proliferation	changes in the morphology and cell death, visual inspection of treated cells (compared with the CAP treatment)	effect on parasite growth (lower doses tested, 100 and 400 μg/ml)	position of OD600 curve in FIG. 2 (50 μg/ml)	effect on parasite growth / Perkinsus proliferation (listed as CAP)
CN[C@@H]1[C@@H](O)[C@@H](O[C@@H]2[C@@H](O)[C@H](O[C@H]3O[C@H]([C@@H](C)O)[C@@H](O)[C@H](O)[C@H]3N)[C@@H](N)C[C@H]2N)OC[C@]1(C)O [G418]	lowest curve	seventh highest curve	six	highly toxic	sixth highest curve	15	inhibited parasite growth; also recorded: inhibition of Perkinsus proliferation, especially G418	more evident	still inhibited parasite growth		
O=C(N[C@H](CO)[C@H](O)c1ccc([N+](=O)[O-])cc1)C(Cl)Cl [chloramphenicol]	fourth highest curve	fifth highest curve					inhibited parasite growth			third highest curve	inhibition of Perkinsus proliferation
